Test results: ChEMBL document CHEMBL5465560, “Selectivity Literature for EUbOPEN Chemogenomic Library” (2024)

Legend:
[1] = molecular target: Mitogen-activated protein kinase kinase kinase 11 (Homo sapiens) (UniProt Q16584); test: Selectivity interaction (Kinase panel (Eurofins)) EUB0001564a MAP3K11; conditions: at 1 µM
[2] = molecular target: T1, MAP/microtubule affinity-regulating kinase 4 (Homo sapiens) (UniProt Q96L34); test: Selectivity interaction (Kinase panel (Carna Biosciences)) EUB0001542aTs MARK4; conditions: at 1 µM
T1 sequence (whole entry): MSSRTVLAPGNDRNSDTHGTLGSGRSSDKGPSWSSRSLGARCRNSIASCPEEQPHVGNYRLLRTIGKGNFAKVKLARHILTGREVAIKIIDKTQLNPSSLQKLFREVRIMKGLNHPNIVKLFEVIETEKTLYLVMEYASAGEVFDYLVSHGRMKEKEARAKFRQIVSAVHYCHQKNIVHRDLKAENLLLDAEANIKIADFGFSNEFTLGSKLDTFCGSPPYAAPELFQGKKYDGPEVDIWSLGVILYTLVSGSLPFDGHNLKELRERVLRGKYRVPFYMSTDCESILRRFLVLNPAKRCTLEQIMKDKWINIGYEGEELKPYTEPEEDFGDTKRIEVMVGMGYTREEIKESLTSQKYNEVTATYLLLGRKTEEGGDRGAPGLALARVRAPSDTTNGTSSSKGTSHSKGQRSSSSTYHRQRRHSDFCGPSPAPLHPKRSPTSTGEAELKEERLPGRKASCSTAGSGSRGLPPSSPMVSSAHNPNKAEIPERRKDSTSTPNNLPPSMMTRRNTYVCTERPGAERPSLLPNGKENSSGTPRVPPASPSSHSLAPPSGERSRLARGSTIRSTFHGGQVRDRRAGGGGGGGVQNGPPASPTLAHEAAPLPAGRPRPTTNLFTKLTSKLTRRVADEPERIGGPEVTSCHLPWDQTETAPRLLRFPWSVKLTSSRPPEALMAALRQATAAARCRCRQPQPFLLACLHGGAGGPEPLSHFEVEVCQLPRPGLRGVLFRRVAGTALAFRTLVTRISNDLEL

[3] = molecular target: T2, Dual specificity mitogen-activated protein kinase kinase 6 (Homo sapiens) (UniProt P52564); test: Selectivity interaction (ActivX KiNativ screen (ex vivo kinase selectivity in human PBMCs)) EUB0001619a MAP2K6; type: cell-based; conditions: PBMC, at 1 µM
T2 sequence (whole entry): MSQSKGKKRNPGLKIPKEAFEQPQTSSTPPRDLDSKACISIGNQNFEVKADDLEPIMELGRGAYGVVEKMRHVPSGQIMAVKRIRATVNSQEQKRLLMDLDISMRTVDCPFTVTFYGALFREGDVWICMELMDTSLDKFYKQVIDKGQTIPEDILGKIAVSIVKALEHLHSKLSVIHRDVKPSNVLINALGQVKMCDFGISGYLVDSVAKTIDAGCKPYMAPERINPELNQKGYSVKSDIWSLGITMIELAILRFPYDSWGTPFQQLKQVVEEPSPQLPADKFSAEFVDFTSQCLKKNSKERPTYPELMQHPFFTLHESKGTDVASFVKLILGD

[4] = molecular target: Mitogen-activated protein kinase kinase kinase 1 (Homo sapiens, UniProt Q13233); test: Selectivity interaction (KinomeScan (DiscoverX)) EUB0000607a MAP3K1; conditions: at 10 µM
[5] = system: Platelet-derived growth factor receptor alpha (Homo sapiens), P16234 [D842V]; test: (§1) Selectivity interaction (SelectScreen profiling (Invitrogen)) EUB0000607a PDGFRA; conditions: at 2 µM
[6] = system: Platelet-derived growth factor receptor alpha (Homo sapiens), P16234 [T674I]; test: as §1; conditions: at 2 µM
[7] = system: Platelet-derived growth factor receptor alpha (Homo sapiens), P16234 [V561D]; test: as §1; conditions: at 2 µM
[8] = molecular target: Platelet-derived growth factor receptor alpha (Homo sapiens, UniProt P16234); test: as §1; conditions: at 2 µM
[9] = molecular target: T3, NUAK family SNF1-like kinase 2 (Homo sapiens) (UniProt Q9H093); test: Selectivity interaction (KinomeScan (DiscoverX)) EUB0000618a NUAK2; conditions: at 10 µM
T3 sequence (whole entry): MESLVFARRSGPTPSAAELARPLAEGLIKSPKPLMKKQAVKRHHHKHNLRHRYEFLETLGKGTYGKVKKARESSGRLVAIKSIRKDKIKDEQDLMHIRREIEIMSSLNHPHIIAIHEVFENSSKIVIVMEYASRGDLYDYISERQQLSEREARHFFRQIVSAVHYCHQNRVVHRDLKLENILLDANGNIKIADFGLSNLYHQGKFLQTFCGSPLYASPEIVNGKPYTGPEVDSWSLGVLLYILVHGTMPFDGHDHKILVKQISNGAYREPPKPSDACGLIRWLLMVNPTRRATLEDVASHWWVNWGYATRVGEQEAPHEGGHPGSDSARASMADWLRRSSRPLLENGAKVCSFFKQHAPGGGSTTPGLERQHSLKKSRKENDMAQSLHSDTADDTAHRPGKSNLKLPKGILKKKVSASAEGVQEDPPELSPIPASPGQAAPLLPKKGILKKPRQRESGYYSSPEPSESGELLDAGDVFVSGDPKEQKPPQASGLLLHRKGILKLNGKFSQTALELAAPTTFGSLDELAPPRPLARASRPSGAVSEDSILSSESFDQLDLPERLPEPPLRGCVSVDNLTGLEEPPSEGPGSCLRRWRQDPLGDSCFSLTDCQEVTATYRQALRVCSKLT

[10] = molecular target: Serine/threonine-protein kinase pim-3 (Homo sapiens) (UniProt Q86V86); test: Selectivity interaction (KinomeScan (DiscoverX)) EUB0000092b PIM3; conditions: at 10 µM

Sequence of Platelet-derived growth factor receptor alpha (P16234 whole entry): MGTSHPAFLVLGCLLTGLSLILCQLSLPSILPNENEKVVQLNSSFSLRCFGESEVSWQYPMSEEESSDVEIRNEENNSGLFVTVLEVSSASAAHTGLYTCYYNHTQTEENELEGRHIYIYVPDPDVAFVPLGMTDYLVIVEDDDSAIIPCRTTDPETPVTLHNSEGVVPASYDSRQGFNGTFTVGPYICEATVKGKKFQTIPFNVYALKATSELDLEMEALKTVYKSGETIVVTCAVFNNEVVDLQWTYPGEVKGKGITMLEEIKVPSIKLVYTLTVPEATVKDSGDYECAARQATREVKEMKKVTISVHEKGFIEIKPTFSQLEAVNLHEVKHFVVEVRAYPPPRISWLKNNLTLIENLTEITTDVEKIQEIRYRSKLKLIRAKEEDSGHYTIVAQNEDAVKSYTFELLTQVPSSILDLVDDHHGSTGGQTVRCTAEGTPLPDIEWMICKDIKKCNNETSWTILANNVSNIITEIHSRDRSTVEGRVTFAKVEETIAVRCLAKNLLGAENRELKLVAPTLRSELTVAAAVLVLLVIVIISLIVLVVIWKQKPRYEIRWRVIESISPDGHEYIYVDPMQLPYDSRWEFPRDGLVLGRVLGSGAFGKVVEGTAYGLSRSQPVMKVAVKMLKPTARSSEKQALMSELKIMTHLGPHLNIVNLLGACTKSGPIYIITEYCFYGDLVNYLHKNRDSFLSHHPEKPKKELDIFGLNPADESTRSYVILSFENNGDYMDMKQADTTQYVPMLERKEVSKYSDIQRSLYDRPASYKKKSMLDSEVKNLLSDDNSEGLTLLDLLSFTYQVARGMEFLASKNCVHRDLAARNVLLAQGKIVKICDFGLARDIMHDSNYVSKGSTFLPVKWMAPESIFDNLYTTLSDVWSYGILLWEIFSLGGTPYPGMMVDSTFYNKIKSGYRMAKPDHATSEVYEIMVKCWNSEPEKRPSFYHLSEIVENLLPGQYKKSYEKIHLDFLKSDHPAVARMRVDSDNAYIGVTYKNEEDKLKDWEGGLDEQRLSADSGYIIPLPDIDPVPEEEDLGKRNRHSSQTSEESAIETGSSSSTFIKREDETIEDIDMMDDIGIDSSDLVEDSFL
Sequence of Platelet-derived growth factor receptor alpha (Homo sapiens), P16234 [V561D] (P16234 whole entry V561D): as the sequence (P16234 whole entry) above, with V561D counted along it
Sequence of Mitogen-activated protein kinase kinase kinase 1 (Q13233 whole entry): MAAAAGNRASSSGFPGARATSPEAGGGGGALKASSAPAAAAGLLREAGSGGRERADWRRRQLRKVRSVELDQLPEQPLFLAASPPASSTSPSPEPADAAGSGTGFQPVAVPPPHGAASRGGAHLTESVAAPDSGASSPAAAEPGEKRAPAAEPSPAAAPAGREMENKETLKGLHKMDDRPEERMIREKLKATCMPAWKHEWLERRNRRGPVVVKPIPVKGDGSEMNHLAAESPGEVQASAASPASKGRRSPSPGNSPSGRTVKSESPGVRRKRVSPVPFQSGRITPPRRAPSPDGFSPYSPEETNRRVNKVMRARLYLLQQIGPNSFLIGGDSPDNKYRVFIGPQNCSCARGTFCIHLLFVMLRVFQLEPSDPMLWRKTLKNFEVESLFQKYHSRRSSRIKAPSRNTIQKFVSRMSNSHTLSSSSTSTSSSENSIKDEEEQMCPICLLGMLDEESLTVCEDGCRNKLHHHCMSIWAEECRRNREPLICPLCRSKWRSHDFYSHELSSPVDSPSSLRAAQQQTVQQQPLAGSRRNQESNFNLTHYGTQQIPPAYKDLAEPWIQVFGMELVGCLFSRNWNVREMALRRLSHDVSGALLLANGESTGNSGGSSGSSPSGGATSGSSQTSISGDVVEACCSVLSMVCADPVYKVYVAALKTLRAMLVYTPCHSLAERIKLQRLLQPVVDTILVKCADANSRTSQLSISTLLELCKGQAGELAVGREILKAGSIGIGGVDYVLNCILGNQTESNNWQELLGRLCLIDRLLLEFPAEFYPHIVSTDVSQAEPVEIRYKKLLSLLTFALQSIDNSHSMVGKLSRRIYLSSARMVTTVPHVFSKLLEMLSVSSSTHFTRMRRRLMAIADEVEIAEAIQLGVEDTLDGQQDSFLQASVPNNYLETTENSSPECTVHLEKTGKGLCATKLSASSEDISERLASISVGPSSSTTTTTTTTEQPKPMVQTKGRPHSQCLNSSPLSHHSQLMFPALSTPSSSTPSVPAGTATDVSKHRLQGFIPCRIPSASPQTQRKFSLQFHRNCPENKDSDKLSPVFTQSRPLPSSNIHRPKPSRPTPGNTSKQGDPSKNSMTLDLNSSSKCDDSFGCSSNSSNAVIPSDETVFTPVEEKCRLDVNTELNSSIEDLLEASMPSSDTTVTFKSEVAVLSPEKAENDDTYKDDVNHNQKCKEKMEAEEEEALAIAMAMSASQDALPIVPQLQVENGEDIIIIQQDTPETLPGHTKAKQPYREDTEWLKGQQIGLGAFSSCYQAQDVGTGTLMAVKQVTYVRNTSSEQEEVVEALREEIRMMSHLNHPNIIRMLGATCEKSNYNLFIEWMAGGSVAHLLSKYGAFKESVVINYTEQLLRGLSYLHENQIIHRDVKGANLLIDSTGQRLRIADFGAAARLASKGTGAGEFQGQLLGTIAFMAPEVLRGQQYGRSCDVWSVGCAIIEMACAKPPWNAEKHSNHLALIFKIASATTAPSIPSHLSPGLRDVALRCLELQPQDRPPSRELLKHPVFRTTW
Sequence of Platelet-derived growth factor receptor alpha (Homo sapiens), P16234 [D842V] (P16234 whole entry D842V): as the sequence (P16234 whole entry) above, with D842V counted along it
Sequence of Platelet-derived growth factor receptor alpha (Homo sapiens), P16234 [T674I] (P16234 whole entry T674I): as the sequence (P16234 whole entry) above, with T674I counted along it
Sequence of Mitogen-activated protein kinase kinase kinase 11 (Homo sapiens) (Q16584 whole entry, looked up): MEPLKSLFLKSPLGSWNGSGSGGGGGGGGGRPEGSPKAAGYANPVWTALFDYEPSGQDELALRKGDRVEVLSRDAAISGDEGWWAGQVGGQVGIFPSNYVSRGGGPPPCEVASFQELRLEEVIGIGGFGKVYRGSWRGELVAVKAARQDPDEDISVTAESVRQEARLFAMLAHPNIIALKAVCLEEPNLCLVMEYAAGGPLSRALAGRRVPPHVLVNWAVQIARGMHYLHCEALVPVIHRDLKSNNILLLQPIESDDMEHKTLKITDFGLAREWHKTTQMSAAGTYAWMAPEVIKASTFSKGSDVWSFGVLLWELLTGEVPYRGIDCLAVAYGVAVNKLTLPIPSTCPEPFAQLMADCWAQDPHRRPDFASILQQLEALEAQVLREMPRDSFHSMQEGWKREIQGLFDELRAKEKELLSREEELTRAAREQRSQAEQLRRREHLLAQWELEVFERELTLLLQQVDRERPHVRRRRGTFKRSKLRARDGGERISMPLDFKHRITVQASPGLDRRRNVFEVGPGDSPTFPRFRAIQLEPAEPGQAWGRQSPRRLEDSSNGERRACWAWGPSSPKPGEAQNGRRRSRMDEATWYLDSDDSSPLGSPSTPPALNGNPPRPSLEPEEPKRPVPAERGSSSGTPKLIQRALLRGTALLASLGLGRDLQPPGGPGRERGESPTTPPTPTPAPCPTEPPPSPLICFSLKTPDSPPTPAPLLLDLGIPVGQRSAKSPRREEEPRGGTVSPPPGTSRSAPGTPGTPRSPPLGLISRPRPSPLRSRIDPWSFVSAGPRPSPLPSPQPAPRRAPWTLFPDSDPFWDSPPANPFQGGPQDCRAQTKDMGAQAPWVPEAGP

`CC[C@@H](Nc1c(C#N)c(-c2ccc(-c3cccc(C)c3F)cc2)nc2cnccc12)C(=O)O` [BAY-091] showed a % of inhibition [1] of 21.1%.

In the case of `Cn1cc(Nc2nccc(N3CC4CCC(C3)N4C(=O)[C@@H]3CC3(F)F)n2)cn1`, the % of inhibition [2] is reported as 59%.

Work on `N#Cc1cccc(-c2c[nH]c3ncnc(N4CCOCC4)c23)c1` yielded a % of inhibition [3] of 9%.

`CNC(=O)Nc1ccc(-c2nc(N3CC4CCC(C3)O4)c3cnn(C4CCC5(CC4)OCCO5)c3n2)cc1` showed a % of control [4] of 58%, a % of inhibition [5] of 4% and a % of inhibition [6] of 12%. It also gave a % of inhibition [7] of 3% and a % of inhibition [8] of 0%.

For `O[C@H]1CC[C@H](Nc2ncc3nc(Nc4c(F)cc(F)cc4F)n([C@H]4CCOC4)c3n2)CC1`, the % of control [9] was 52%.

In the case of `CCC(=O)N1CCN(c2ccc(-n3c(=O)ccc4cnc5ccc(-c6cnc7ccccc7c6)cc5c43)cc2C(F)(F)F)CC1`, the % of control [10] is reported as 96%.
